Data published in PMC4748415, “Impact of different cell penetrating peptides on the efficacy of antisense therapeutics for targeting intracellular pathogens” (Scientific Reports, 2016).
Values joined by “and” are separate entries in the source; they are usually repeats but may differ in a detail not shown here. Equal values may be shown once. “Also recorded” adds a separate entry of the source. Read-outs that look alike come from different tables or passages of the source. Marks after values point to notes of the source that are not given here.

Legend:
[1] = test system: cytoplasmic membrane of L. monocytogenes F4244; experiment: Calcein leakage assay; format: cell-based, Listeria monocytogenes; settings: 30 min exposure; PRXR 8 × MIC (8 μM), nisin 5 × MIC (10 μg/ml); fluorescence, n = 3
Description: To investigate the effect of PNA on the integrity of the Listeria cell membrane, the leakage of the preloaded fluorescent dye, calcein, was monitored and quantified as described before with a few modifications. Briefly, 20 ml of logarithmic growth phase (OD600 = 1.0, ~10^9 CFU/ml) L. monocytogenes F4244 was centrifuged and bacteria were resuspended in 9 ml of sterile PBS plus 1 ml of BHI. 3 μM of calcein AM dye was added to the bacterial suspension prior to covering the suspension with aluminum foil and incubating for one hour at 37 °C. After 10 minutes centrifugation at 3,000 × g, the supernatant was discarded. The calcein-loaded bacterial cells were resuspended in 30 ml of sterile PBS and 100 μL calcein-loaded bacteria were distributed in a 96-well microtiter plate (in triplicate). PRXR was added in a concentration equal to 8 × MIC (8 μM). Nisin 5 × MIC (10 μg/ml) and sterile water were used as positive and negative controls, respectively. Intensity of fluorescence (calcein leakage) was detected every 5 minutes for 30 minutes using a fluorescence plate reader (FLx800 model BioTek® Instruments, Inc. Winooski, Vermont) with the excitation and emission filters adjusted to 485 nm and 520 nm, respectively.

[2] = test system: L. monocytogenes F4244 inside infected J774A.1 cells; format: cell-based; settings: 4 hours; for Log CFU/ml: intracellular F4244 in J774A.1; for Log CFU reduction: intracellular F4244 in J774A.1, versus control
L. monocytogenes F4244 [3] = experiment: Concentration-dependent bacterial log reduction in pure culture; format: cell-based, Listeria monocytogenes; settings: for Log CFU/ml: pure culture F4244, 16 hour incubation; for Log CFU reduction: relative to control, pure culture F4244
Description: (§1) The MICs of conjugated PNAs, free PNA, CPPs and untreated control against L. monocytogenes were determined using the broth microdilution method according to the Clinical and Laboratory Standards Institute (CLSI) guidelines with the following modifications. Briefly, low binding clear microcentrifuge tubes (USA scientific, Inc. Ocala, FL) were used in triplicates for each reaction instead of traditional 96-well plates. […] After a 16 hour incubation period (of test agent with bacteria), the number of viable bacteria was enumerated by serial dilution and counting on TSA plates. The MICs were repeated at least twice.

[4] = test system: L. monocytogenes J0161 in infected C. elegans; experiment: C. elegans infection model; settings: 18 hours treatment; for Log CFUs/worm: 10 worms in triplicates; for Log CFUs reduction: versus water
Description: To test the efficacy of PNA in vivo we used Listeria-infected C. elegans. The temperature-sensitive sterile mutant strain C. elegans AU37 [sek-1(km4); glp-4(bn2) I] was used for this study. This strain is sterile at room temperature and can lay eggs only at 15 °C. Furthermore, mutation in the sek-1 gene of the p38 mitogen-activated protein kinase pathway (p38 MAPK pathway), makes this particular C. elegans strain more susceptible to Listeria infection[49][56]. Initially, the pathogenicity of three strains of Listeria (F4244, J0161 and ATCC19111) was tested in C. elegans as described before[24] to determine the most virulent strain to use for this study. […] Briefly, adult worms were grown for 5 days, at 15 °C (temperature that permits worms to lay eggs) on NGM agar plates seeded with a lawn of E. coli OP50. The eggs were harvested by bleaching[57] and maintained for 24 hours at room temperature with gentle agitation for hatching. Hatched larvae were transferred to a new NGM plate seeded with E. coli OP50 and were kept at room temperature for five days until worms reached the adult stage of growth. Adult worms were collected and washed three times with M9 media in a 1:10 ratio to remove E. coli before transfer to LB agar plates seeded with a lawn of L. monocytogenes J0161 for infection. After eight hours of infection, worms were collected and washed with M9 buffer five times before incubation with PNAs. Worms were transferred to low-binding microcentrifuge tubes (10 worms per tube). […] After treatment for 18 hours, worms were washed five times with M9 buffer. […] Samples were serially diluted and plated onto TSA plates containing 5 μg/ml nalidixic acid to select for Listeria.

L. monocytogenes F4244 [5] = experiment: Time kill assay; format: cell-based, Listeria monocytogenes; settings: 8 μM PNA, 37 °C, samples every 20 minutes, inoculum 2.4 × 10^5 CFU/ml
plcB = experiment: Real-Time qRT-PCR gene expression, plcB; format: cell-based, L. monocytogenes F4244; settings: 3.5 hours, 37 °C
hly = experiment: Real-Time qRT-PCR gene expression, hly; format: cell-based, L. monocytogenes F4244; settings: 2 μM PTAT, 3.5 hours, 37 °C
plcA = experiment: Real-Time qRT-PCR gene expression, plcA; format: cell-based, L. monocytogenes F4244; settings: 2 μM PTAT, 3.5 hours, 37 °C
[6] = test system: mitochondrial biogenesis in J774A.1 cells; experiment: Mitobiogenesis assay (In-Cell ELISA, COX-I/SDH-A); settings: three days, tested at 0.1, 1, 10 and 20 μM, COX-I/SDH-A ratio
Description: To measure the effect of PNA on the mitochondrial biogenesis, In-Cell ELISA Kit (MitoSciences Inc., Eugene, OR, USA) was used as per the manufacturer’s instructions[54][55]. Briefly, J774A.1 cells were seeded (approximately 40,000 cells per well) in 96-well plates and allowed to adhere. […] Cells were allowed to grow for approximately 3 days. Media were removed and cells were washed with PBS, then fixed with 4% paraformaldehyde. After fixing, cells were washed with PBS and permeabilization and blocking processes were done according to the manufacturer’s instructions. Primary antibodies to detect the levels of two proteins (subunit I of Complex IV (COX-I), that is mitochondrial DNA (mtDNA)-encoded), and the 70 kDa subunit of Complex II (SDH-A), a nuclear DNA (nDNA)-encoded were added and incubated for overnight at 4 °C. After incubation, cells were washed with PBS and secondary antibodies were added and incubated at room temperature for one hour. After washing, the expression of SDH-A and COX-1 were measured at 405 nm and 600 nm wavelength, respectively. The ratio between COX-I and SDH-A was calculated and the percent of inhibition of mitochondrial biogenesis was determined.

rpoA = settings: 3.5 hours, 37 °C
[7] = test system: clinical isolates of L. monocytogenes; format: cell-based, Listeria monocytogenes; settings: for MIC50: concentration required to inhibit 50% of L. monocytogenes isolates (six isolates); for MIC: broth microdilution in low binding tubes, triplicates, 16 hour incubation
Description: as §1

L. monocytogenes F4244 [8] = experiment: Time kill assay; format: cell-based, Listeria monocytogenes; settings: 12 hours; for time to complete eradication of Listeria: 32 μM PNA, 37 °C, samples every 2 hours, ~10^5 CFU/ml; for bactericidal or bacteriostatic activity: L. monocytogenes, time kill at 32 μM
Description: L. monocytogenes F4244 in logarithmic growth phase was diluted to ~10^5 CFU/ml and incubated with 32 μM of the five PNAs (in triplicates) at 37 °C for 12 hours. Samples were collected every two hours, serially diluted, and plated onto TSA plates. Plates were then incubated wat 37 °C for 24 hours before viable CFUs were determined.
Samples were collected every 20 minutes and processed as above.

MRSA USA300 = experiment: MIC against MRSA in pure culture; format: cell-based; settings: multiple of the Listeria MIC, data not shown

Substance: nisin [reference compound]
- calcein leakage [1]: more than 72%

Substance: GRKKKRRQRRRYK-O-cgatcattcaaa-NH2 [PTAT, anti-rpoA PNA covalently conjugated to the TAT CPP]
- Log CFU/ml ([2]; 2 μM): 5.95 ± 0.02 Log CFU/ml
- Log CFU reduction ([2]; 2 μM): 0.78 Log CFU
- Log CFU/ml ([2]; 4 μM): 5.19 ± 0.33 Log CFU/ml
- Log CFU reduction ([2]; 4 μM): 1.54* Log CFU
- Log CFU/ml ([2]; 8 μM): 4.22 ± 0.11 Log CFU/ml
- Log CFU reduction ([2]; 8 μM): 2.51* Log CFU
- Log CFU/ml (L. monocytogenes F4244 [3]; 1 µM PNA): 8.28±0.37 Log CFU/ml
- Log CFU reduction (L. monocytogenes F4244 [3]; 1 µM PNA): 1.1 Log CFU
- Log CFU/ml (L. monocytogenes F4244 [3]; 2 µM PNA): 5.94±0.42 Log CFU/ml
- Log CFU reduction (L. monocytogenes F4244 [3]; 2 µM PNA): 3.45 Log CFU
- Log CFU/ml (L. monocytogenes F4244 [3]; 4 µM PNA): Cleared
- Log CFU reduction (L. monocytogenes F4244 [3]; 4 µM PNA): 9.39 Log CFU
- Log CFU/ml (L. monocytogenes F4244 [3]; 8 µM PNA): Cleared
- Log CFU reduction (L. monocytogenes F4244 [3]; 8 µM PNA): 9.39 Log CFU
- Log CFU/ml (L. monocytogenes F4244 [3]; 16 µM PNA): Cleared
- Log CFU reduction (L. monocytogenes F4244 [3]; 16 µM PNA): 9.39 Log CFU
- Log CFU/ml (L. monocytogenes F4244 [3]; 32 µM PNA): Cleared
- Log CFU reduction (L. monocytogenes F4244 [3]; 32 µM PNA): 9.39 Log CFU
- Log CFUs/worm ([4]; 16 µM): 3.04±0.36 Log CFUs/worm
- Log CFUs reduction ([4]; 16 µM): 1.11 Log CFUs
- Log CFUs/worm ([4]; 32 µM): 1.7±0.6 Log CFUs/worm
- Log CFUs reduction ([4]; 32 µM): 2.67 Log CFUs
- time to complete elimination of starting inoculum (L. monocytogenes F4244 [5]): ≤ 20 min
- reduction in plcB gene expression (plcB; 1 μM PTAT): 55.9%
- decrease of plcB gene expression (plcB; 2 μM PTAT): more than 70%
- downregulation of hly gene (hly): more than 50%
- decrease of plcA gene expression (plcA): more than 70%
- inhibition of mitochondrial protein synthesis (mitobiogenesis) [6]: does not interfere with the mitochondrial protein synthesis process
- percentage of gene expression of rpoA (rpoA; 1 μM PTAT): more than 50%
- reduction in rpoA gene expression (rpoA; 1 μM PTAT): 50% and 43.7%
- percentage of gene expression of rpoA (rpoA; 4 μM PTAT): less than 5%
- MIC50 [7]: 2 µM
- MIC ([7]; strain ATCC 13932): 4 µM
- MIC ([7]; strain ATCC 19111): 4 µM
- MIC ([7]; strain ATCC 19112): 2 µM
- MIC ([7]; strain ATCC 19114): 0.5 µM
- MIC ([7]; strain F4244, no turbidity): 2 µM
- MIC ([7]; strain J0161): 4 µM
- time to complete eradication of Listeria (L. monocytogenes F4244 [8]): ≤ 2 h
- bactericidal or bacteriostatic activity (L. monocytogenes F4244 [8]): bactericidal activity

Substance: RXRRXRRXRRXRXB-O-cgatcattcaaa-NH2 [PRXR, anti-rpoA PNA covalently conjugated to the (RXR)4XB CPP]
- Log CFU/ml ([2]; 2 μM): 4.95 ± 0.07 Log CFU/ml
- Log CFU reduction ([2]; 2 μM): 1.78 Log CFU
- Log CFU/ml ([2]; 4 μM): 3.079 Log CFU/ml
- Log CFU reduction ([2]; 4 μM): 3.65* Log CFU
- Log CFU/ml ([2]; 8 μM): complete clearance; also recorded: cleared
- Log CFU reduction ([2]; 8 μM): 6.73* Log CFU
- Log CFU/ml (L. monocytogenes F4244 [3]; 1 µM PNA): 6.87±0.84 Log CFU/ml
- Log CFU reduction (L. monocytogenes F4244 [3]; 1 µM PNA): 2.51 Log CFU
- Log CFU/ml (L. monocytogenes F4244 [3]; 2 µM PNA): 3.15±0.21 Log CFU/ml
- Log CFU reduction (L. monocytogenes F4244 [3]; 2 µM PNA): 6.24 Log CFU
- Log CFU/ml (L. monocytogenes F4244 [3]; 4 µM PNA): Cleared
- Log CFU reduction (L. monocytogenes F4244 [3]; 4 µM PNA): 9.39 Log CFU
- Log CFU/ml (L. monocytogenes F4244 [3]; 8 µM PNA): Cleared
- Log CFU reduction (L. monocytogenes F4244 [3]; 8 µM PNA): 9.39 Log CFU
- Log CFU/ml (L. monocytogenes F4244 [3]; 16 µM PNA): Cleared
- Log CFU reduction (L. monocytogenes F4244 [3]; 16 µM PNA): 9.39 Log CFU
- Log CFU/ml (L. monocytogenes F4244 [3]; 32 µM PNA): Cleared
- Log CFU reduction (L. monocytogenes F4244 [3]; 32 µM PNA): 9.39 Log CFU
- Log CFUs/worm ([4]; 16 µM): 2.24±0.99 Log CFUs/worm
- Log CFUs reduction ([4]; 16 µM): 1.91 Log CFUs
- Log CFUs reduction ([4]; 32 µM): 4.38 Log CFUs
- time to complete elimination of starting inoculum (L. monocytogenes F4244 [5]): ≤ 20 min
- concentration without inhibition of bacterial growth (MRSA USA300): > 16 × MIC
- MIC50 [7]: 1 µM
- MIC ([7]; strain ATCC 13932): 2 µM
- MIC ([7]; strain ATCC 19111): 1 µM
- MIC ([7]; strain ATCC 19112): 1 µM
- MIC ([7]; strain ATCC 19114): 0.25 µM
- MIC ([7]; strain F4244, no turbidity): 1 µM
- MIC ([7]; strain J0161): 4 µM
- time to complete eradication of Listeria (L. monocytogenes F4244 [8]): ≤ 2 h
- bactericidal or bacteriostatic activity (L. monocytogenes F4244 [8]): bactericidal activity
- calcein leakage [1]: did not result in leakage; also recorded: does not permeabilize the bacterial cell membrane
